Measurements taken from patent publication US7838045B2, “Anti-inflammatory activity of phenethylisothiocyanate (PEITC) and the Barbarea verna seed preparation containing this compound” (priority 2005, dated 2010).

Legend:
Assay type in all cases: cell-based, mouse
IL1β = assay: qPCR gene expression in LPS-stimulated RAW264.7 macrophages, IL1β; details: for IL1β % down-regulation: 8 hour treatment
Procedure: (§1) The mouse monocyte/macrophage cell line RAW 264.7 (obtained from American Type Culture Collection, ATCC, VA USA) was maintained in Dulbecco's Modified Eagle Medium (DMEM) (Invitrogen Inc) supplemented with 100 U/ml penicillin, 100 μg/ml streptomycin, and 10% heat-inactivated fetal calf serum. All incubations were at 37° C. in a 5% CO2 in internal air atmosphere, within the growth chamber.
(§2) Cells were seeded at a density of 0.4×10^6 cells per well (viable cell counts performed with a hemocytometer), in 24 well plates 12 hours prior to treatment. The cells were then treated with test compounds at required concentrations (pre-determined doses) for 2 hours before elicitation with LPS at 1 μg/ml for an additional 6 hours. For every experiment one positive control (cells treated only with LPS) and one negative control (cells without any treatment) were included. For treatments and the controls, two replicates were made in each case. At the end, cells were harvested in Trizol reagent (Invitrogen Inc) for subsequent cellular RNA extraction. The stock of BSP used for the assay was prepared by partially dissolving 50 mg/ml seed preparation in 95% ethyl alcohol for 15 minutes by sonication, where it released PEITC in the clear supernatant that was used for the cell treatment. Cell viability was measured by MTT assay (Mosmann (1983) J. Immunol. Methods 65:55-63).
(§3) Total RNA was extracted from RAW macrophages using Trizol reagent (Invitrogen Inc.) following manufacturer instructions. RNA was quantified spectro-photometrically by absorption measurements at 260 nm and 280 nm using NanoDrop™ system (NanoDrop Technologies Inc. DE, USA). RNA was assessed qualitatively by gel-electrophoresis methods. RNA was then treated with DnaseI (Invitrogen Inc.) also following manufacturer guidelines, to remove any traces of DNA contamination. The cDNAs were synthesized using 3 μg of RNA for each sample using Stratascript™ Reverse Transcriptase, an RNA dependent DNA polymerase (Stratagene, La Jolla, Calif.), following manufacturer protocol. Utmost care was taken to minimize any quantification inaccuracy and pipetting error.
(§4) The synthesized cDNAs were diluted 4-fold. 2 μl of each of these diluted samples were used for PCR reactions of 25 μl final volume. The other components of the PCR reactions were 0.5 μl of 6 μM gene specific primers (oligos synthesized by IDT Inc. USA), 12.5 μl of Brilliant SYBR green PCR master mix (2×) (Stratagene, La Jolla, Calif.) containing green jump-start Taq ready mix. ROX (Stratagene, La Jolla, Calif.) was used as an internal dye. To avoid interference due to genomic DNA contamination, only intron-overlapping primers were selected using the software Primer Express™ (Applied Biosystem, Foster City, Calif.) as follows:
(§5) Forward and reverse pairs of the primers are indicated above as “F” and “R” respectively. PCR amplifications were performed on MX3000p system (Stratagene, La Jolla, Calif.) using 1 cycle at 50° C. for 2 min, 1 cycle of 95° C. for 10 minutes, followed by 40 cycles of 15 seconds at 95° C. and 1 min at 60° C. The dissociation curve was completed with one cycle of 1 minute at 95° C., 30 seconds of 55° C. and 30 seconds of 95° C. NRT (non-RT control) and NTC (no template control) were included in the PCR program as quality control steps.
(§6) RNA expressions for COX2, iNOS and IL1β, normalized with respect to the expression of housekeeping β-actin gene, were analyzed using the ΔΔCt method (software from Stratagene inc, USA) as described by Pfaffl (Pfaffl, 2001, Nucleic Acids Res 29(9):2002-2007). The ΔΔCt values obtained from these analyses were converted [(1−ΔΔCt)×100] to obtain percentage of inhibition (% inhibition or % downregulation) which reflected the anti-inflammatory properties of the test compounds (Table 2, 4). A value of 100% indicates complete inhibition of LPS-stimulated genetic up-regulation. 0% implies absence of any anti-inflammatory activity of the test compound. […]

COX2 = assay: qPCR gene expression in LPS-stimulated RAW264.7 macrophages, COX2; details: for COX2 % down-regulation: 8 hour treatment
Procedure: as §1
as §2, with “The stock of BSP used for the assay was prepared by partially dissolving 50 mg/ml seed preparation in 95% ethyl alcohol for 15 minutes by sonication, where it released PEITC in the clear supernatant that was used for the cell treatment.” left out
as §3, §4, §5
RNA expressions for COX2, iNOS and IL1β, normalized with respect to the expression of housekeeping β-actin gene, were analyzed using the ΔΔCt method (software from Stratagene inc, USA) as described by Pfaffl (Pfaffl, 2001, Nucleic Acids Res 29(9):2002-2007). The ΔΔCt values obtained from these analyses were converted [(1−ΔΔCt)×100] to obtain percentage of inhibition (% inhibition or % downregulation) which reflected the anti-inflammatory properties of the test compounds (Table 2, 4). A value of 100% indicates complete inhibition of LPS-stimulated genetic up-regulation. 0% implies absence of any anti-inflammatory activity of the test compound.

iNOS = assay: qPCR gene expression in LPS-stimulated RAW264.7 macrophages, iNOS; details: for iNOS % down-regulation: 8 hour treatment
Procedure: as §1, §2, §3, §4, §5, §6

[1] = Mus musculus, RAW264.7, pure compound

Compound | IL1β % down-regulation (IL1β; 5 μM) | COX2 % down-regulation (COX2; 5 μM) | iNOS % down-regulation (iNOS; 5 μM) | IL1β % down-regulation (IL1β; 10 μM) | COX2 % down-regulation (COX2; 10 μM) | iNOS % down-regulation (iNOS; 10 μM) | IL1β % down-regulation (IL1β; 1 μM) | IL1β % down-regulation (IL1β; 20 μM) | COX2 % down-regulation (COX2; 1 μM) | COX2 % down-regulation (COX2; 20 μM) | iNOS % down-regulation (iNOS; 1 μM) | iNOS % down-regulation (iNOS; 20 μM) | other results
C=CCN=C=S [Allyl] | 86% | Up-regulation | 76% | – | – | – | – | – | – | – | – | – | IL1β % down-regulation (IL1β; 5 μM, listed as allyl): equally active as PEITC; iNOS % down-regulation (iNOS; 5 μM, listed as allyl): equally active as PEITC
CC(C)N=C=S [Isopropyl] | 40% | Up-regulation | 9% | 59% | Up-regulation | 7% | – | – | – | – | – | – | –
S=C=NCCc1ccccc1 [PEITC, phenethylisothiocyanate] | 86.0 ± 9.8% | 19.0 ± 27.1% | 69.8 ± 21.1% | 92.0 ± 10.4% | 28.3 ± 15.0% | 81.7 ± 5.5% | 36.5 ± 9.2% | 100.0 ± 0.0% | −73.5 ± 20.5% | 99.5 ± 0.7% | 2.0 ± 7.1% | 99.5 ± 0.7% | IL1β % down-regulation (IL1β; 40 μM): 100.0 ± 0.0%; IL1β % down-regulation (IL1β; 80 μM): 100.0 ± 0.0%; IC50 (IL1β; Mus musculus, RAW264.7, pure compound, read-out: IC50 in IL1 β-assay): 2 µM; COX2 % down-regulation (COX2; 40 μM): 100.0 ± 0.0%; COX2 % down-regulation (COX2; 80 μM): 100.0 ± 0.0%; IC50 (COX2; [1]): 17 µM; iNOS % down-regulation (iNOS; 40 μM): 99.5 ± 0.7%; iNOS % down-regulation (iNOS; 80 μM): 99.5 ± 0.7%; IC50 (iNOS; [1]): 4 µM
S=C=Nc1ccccc1 [Phenyl] | 47% | Up-regulation | 31% | 59% | 3% | 35% | – | – | – | – | – | – | –
CC(C)(C)N=C=S [Tert-butyl] | 44% | Up-regulation | 3% | 61% | Up-regulation | 0% | – | – | – | – | – | – | –
CS(=O)(=O)c1ccc(C2=C(c3ccccc3)C(=O)OC2)cc1 [rofecoxib] | 10% | 8% | 37% | 12% | 22% | 68% | 18% | 15% | −52% | 25% | 35% | 45% | –
